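GI50 is the concentration that inhibits growth by half. At the TGI there is no net growth.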
Columns and labels:
Assay in all cases: NCI-60 cell line screen, 384-well format
SR leukemia = tested on: SR leukemia
OVCAR-5 ovarian = tested on: OVCAR-5 ovarian
HCT-15 colon = tested on: HCT-15 colon
HS 578T breast = tested on: HS 578T breast
UACC-62 melanoma = tested on: UACC-62 melanoma
UO-31 renal = tested on: UO-31 renal
SNB-75 CNS = tested on: SNB-75 CNS
MDA-MB-435 melanoma = tested on: MDA-MB-435 melanoma
CCRF-CEM leukemia = tested on: CCRF-CEM leukemia
ACHN renal = tested on: ACHN renal
SF-539 CNS = tested on: SF-539 CNS
M14 melanoma = tested on: M14 melanoma
A549 NSCLC = tested on: A549 NSCLC
BT-549 breast = tested on: BT-549 breast
SK-MEL-5 melanoma = tested on: SK-MEL-5 melanoma
NCI-H322M lung = tested on: NCI-H322M lung
HCT-116 colon = tested on: HCT-116 colon
OVCAR-4 ovarian = tested on: OVCAR-4 ovarian
786-0 renal = tested on: 786-0 renal
SN12C renal = tested on: SN12C renal
NCI-H226 lung = tested on: NCI-H226 lung
HOP-62 NSCLC = tested on: HOP-62 NSCLC
HL-60(TB) leukemia = tested on: HL-60(TB) leukemia
MDA-MB-468 breast = tested on: MDA-MB-468 breast
HCC-2998 colon = tested on: HCC-2998 colon
IGROV1 ovarian = tested on: IGROV1 ovarian
UACC-257 melanoma = tested on: UACC-257 melanoma
SF-268 CNS = tested on: SF-268 CNS
NCI-H460 NSCLC = tested on: NCI-H460 NSCLC

**Q.** `CC[C@@]1(O)C(=O)OCc2c1cc1n(c2=O)Cc2c-1nc1cc(F)c(C)c3c1c2[C@@H](NC(=O)CO)CC3` was tested. Which GI50 (SR leukemia) did it give?
**A.** Its GI50 is less than 10 nM.

**Q.** And the TGI (SR leukemia)?
**A.** Its TGI is less than 10 nM.

**Q.** What about the GI50 (OVCAR-5 ovarian) of the same compound?
**A.** Its GI50 is 35.2 nM.

**Q.** What about the TGI (OVCAR-5 ovarian) of the same compound?
**A.** The TGI was 268 nM.

**Q.** And the GI50 (HCT-15 colon)?
**A.** The GI50 was 17.5 nM.

**Q.** What about the TGI (HCT-15 colon) of the same compound?
**A.** The TGI was 1180 nM.

**Q.** And the GI50 (HS 578T breast)?
**A.** The GI50 was less than 10 nM.

**Q.** And the TGI (HS 578T breast)?
**A.** The TGI was 2360 nM.

**Q.** What about the GI50 (UACC-62 melanoma) of the same compound?
**A.** The GI50 was less than 10 nM.

**Q.** What about the TGI (UACC-62 melanoma) of the same compound?
**A.** The TGI was less than 10 nM.

**Q.** And the GI50 (UO-31 renal)?
**A.** Its GI50 is 20.6 nM.

**Q.** What about the TGI (UO-31 renal) of the same compound?
**A.** Its TGI is 116 nM.

**Q.** What about the GI50 (SNB-75 CNS) of the same compound?
**A.** Its GI50 is less than 10 nM.

**Q.** And the TGI (SNB-75 CNS)?
**A.** Its TGI is 10.8 nM.

**Q.** What about the GI50 (MDA-MB-435 melanoma) of the same compound?
**A.** Its GI50 is 24.3 nM.

**Q.** What about the TGI (MDA-MB-435 melanoma) of the same compound?
**A.** The TGI was 467 nM.

**Q.** And the GI50 (CCRF-CEM leukemia)?
**A.** The GI50 was less than 10 nM.

**Q.** What about the TGI (CCRF-CEM leukemia) of the same compound?
**A.** The TGI was less than 10 nM.

**Q.** And the GI50 (ACHN renal)?
**A.** The GI50 was less than 10 nM.

**Q.** And the TGI (ACHN renal)?
**A.** Its TGI is 11.1 nM.

**Q.** What about the GI50 (SF-539 CNS) of the same compound?
**A.** The GI50 was less than 10 nM.

**Q.** What about the TGI (SF-539 CNS) of the same compound?
**A.** Its TGI is 15.6 nM.

**Q.** What about the GI50 (M14 melanoma) of the same compound?
**A.** The GI50 was less than 10 nM.

**Q.** And the TGI (M14 melanoma)?
**A.** The TGI was 12.8 nM.

**Q.** And the GI50 (A549 NSCLC)?
**A.** Its GI50 is 49.8 nM.

**Q.** What about the TGI (A549 NSCLC) of the same compound?
**A.** Its TGI is 944 nM.

**Q.** What about the GI50 (BT-549 breast) of the same compound?
**A.** Its GI50 is less than 10 nM.

**Q.** And the TGI (BT-549 breast)?
**A.** Its TGI is 40.2 nM.

**Q.** What about the GI50 (SK-MEL-5 melanoma) of the same compound?
**A.** The GI50 was less than 10 nM.

**Q.** And the TGI (SK-MEL-5 melanoma)?
**A.** Its TGI is 16.4 nM.

**Q.** What about the GI50 (NCI-H322M lung) of the same compound?
**A.** Its GI50 is 54.2 nM.

**Q.** And the TGI (NCI-H322M lung)?
**A.** Its TGI is 684 nM.

**Q.** What about the GI50 (HCT-116 colon) of the same compound?
**A.** The GI50 was less than 10 nM.

**Q.** What about the TGI (HCT-116 colon) of the same compound?
**A.** The TGI was 159 nM.

**Q.** What about the GI50 (OVCAR-4 ovarian) of the same compound?
**A.** The GI50 was 131 nM.

**Q.** And the TGI (OVCAR-4 ovarian)?
**A.** The TGI was 419 nM.

**Q.** And the GI50 (786-0 renal)?
**A.** Its GI50 is less than 10 nM.

**Q.** What about the TGI (786-0 renal) of the same compound?
**A.** Its TGI is 10.1 nM.

**Q.** What about the GI50 (SN12C renal) of the same compound?
**A.** Its GI50 is less than 10 nM.

**Q.** And the TGI (SN12C renal)?
**A.** Its TGI is less than 10 nM.

**Q.** And the GI50 (NCI-H226 lung)?
**A.** The GI50 was less than 10 nM.

**Q.** And the TGI (NCI-H226 lung)?
**A.** The TGI was 49.6 nM.

**Q.** And the GI50 (HOP-62 NSCLC)?
**A.** Its GI50 is less than 10 nM.

**Q.** What about the TGI (HOP-62 NSCLC) of the same compound?
**A.** Its TGI is less than 10 nM.

**Q.** What about the GI50 (HL-60(TB) leukemia) of the same compound?
**A.** Its GI50 is less than 10 nM.

**Q.** And the TGI (HL-60(TB) leukemia)?
**A.** Its TGI is less than 10 nM.

**Q.** What about the GI50 (MDA-MB-468 breast) of the same compound?
**A.** Its GI50 is less than 10 nM.

**Q.** What about the TGI (MDA-MB-468 breast) of the same compound?
**A.** The TGI was less than 10 nM.

**Q.** And the GI50 (HCC-2998 colon)?
**A.** Its GI50 is 15.6 nM.

**Q.** And the TGI (HCC-2998 colon)?
**A.** Its TGI is 212 nM.

**Q.** And the GI50 (IGROV1 ovarian)?
**A.** The GI50 was 12.8 nM.

**Q.** What about the TGI (IGROV1 ovarian) of the same compound?
**A.** Its TGI is 1140 nM.

**Q.** And the GI50 (UACC-257 melanoma)?
**A.** The GI50 was 19.4 nM.

**Q.** And the TGI (UACC-257 melanoma)?
**A.** Its TGI is 226 nM.

**Q.** What about the GI50 (SF-268 CNS) of the same compound?
**A.** The GI50 was less than 10 nM.

**Q.** And the TGI (SF-268 CNS)?
**A.** The TGI was less than 10 nM.

**Q.** What about the GI50 (NCI-H460 NSCLC) of the same compound?
**A.** Its GI50 is less than 10 nM.

**Q.** And the TGI (NCI-H460 NSCLC)?
**A.** Its TGI is 23.4 nM.

— PubChem BioAssay (NCI)
